Laboratory results from patent publication US6706664B1, “Benzoxazole compounds, process for the preparation thereof and herbicides” (UBE Industries, Ltd., priority 1999, dated 2004).

Key:
Set-up in all cases: key: 0: normal development; 1: Less damaged; 2: Slightly damaged; 3: Moderately damaged; 4: Severely damaged; 5: All killed
[1] = test system: blackgrass; assay: Soil treatment test for upland field; type: in vivo, Alopecurus aegualis; conditions: 500 g/ha, glass house 25° C., 3 weeks
Method in brief: (§1)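 Compounds were formulated as wettable powders and applied pre-emergence to the surface of freshly sown alluvial soil at 500 g/ha. After three weeks in a glass house averaging 25° C, damage was rated from 0 (normal development) to 5 (all killed).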

[2] = test system: young rice plant; assay: Herbicidal test for paddy field; type: in vivo; conditions: paddy field pot, 500 g/ha dropwise at 1.5 leaf stage of barnyardgrass, 3 weeks, rank vs non-treated
Method in brief: (§2)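 Ube alluvial soil in pots flooded to 3 cm water depth, sown with seeds or tubers. Wettable powder diluted in water with 0.05% surfactant was dripped onto the water at 500 g/ha when barnyardgrass reached the 1.5-leaf stage. After 3 weeks in a glasshouse at an average of 25° C, damage was scored 0 (normal) to 5 (all killed) against untreated pots.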

[3] = test system: morning glory; assay: Foliar spread test for upland field; type: in vivo, Ipomoea spps.; conditions: foliar spray 500 ppm, 3 weeks, rank vs non-treated
Method in brief: (§3)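 Post-emergence foliar spray, 500 ppm (wettable powder in water + 0.5% surfactant), on ~2-week-old plants grown in volcanic ash soil; glasshouse, avg 25° C, 3 wk; visual damage score 0–5.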

[4] = test system: green foxtail; assay: Foliar spread test for upland field; type: in vivo, Setaria viridis; conditions: foliar spray 500 ppm, 3 weeks, rank vs non-treated
Method in brief: as §3

[5] = test system: barnyardgrass; assay: Soil treatment test for upland field; type: in vivo, Echinochloa crusgalli; conditions: 500 g/ha, glass house 25° C., 3 weeks
Method in brief: as §1

[6] = test system: blackgrass; assay: Foliar spread test for upland field; type: in vivo, Alopecurus aegualis; conditions: foliar spray 500 ppm, 3 weeks, rank vs non-treated
Method in brief: as §3

[7] = test system: barnyardgrass; assay: Herbicidal test for paddy field; type: in vivo, Echinochloa crusgalli; conditions: paddy field pot, 500 g/ha dropwise at 1.5 leaf stage of barnyardgrass, 3 weeks, rank vs non-treated
Method in brief: as §2

[8] = test system: common lambsquartes; assay: Foliar spread test for upland field; type: in vivo, Chenopodium album; conditions: foliar spray 500 ppm, 3 weeks, rank vs non-treated
Method in brief: as §3

[9] = test system: common lambsquartes; assay: Soil treatment test for upland field; type: in vivo, Chenopodium album; conditions: 500 g/ha, glass house 25° C., 3 weeks
Method in brief: as §1

[10] = test system: green foxtail; assay: Soil treatment test for upland field; type: in vivo, Setaria viridis; conditions: 500 g/ha, glass house 25° C., 3 weeks
Method in brief: as §1

[11] = test system: wheat; assay: Foliar spread test for upland field; type: in vivo; conditions: foliar spray 500 ppm, 3 weeks, rank vs non-treated
Method in brief: (§4)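 Crops and weeds grown about 2 weeks in volcanic ash soil in a glasshouse, then sprayed with wettable-powder formulations diluted to 500 ppm in water with 0.5% surfactant. After 3 weeks at 25 °C, injury scored visually 0 (normal) to 5 (all killed).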

[12] = test system: corn; assay: Foliar spread test for upland field; type: in vivo; conditions: foliar spray 500 ppm, 3 weeks, rank vs non-treated
Method in brief: as §4

[13] = test system: sugar beat; assay: Foliar spread test for upland field; type: in vivo; conditions: foliar spray 500 ppm, 3 weeks, rank vs non-treated
Method in brief: as §4

[14] = test system: solgum; assay: Foliar spread test for upland field; type: in vivo; conditions: foliar spray 500 ppm, 3 weeks, rank vs non-treated
Method in brief: as §4

[15] = test system: velvetleaf; assay: Foliar spread test for upland field; type: in vivo, Abutilon theophrasti; conditions: foliar spray 500 ppm, 3 weeks, rank vs non-treated
Method in brief: as §3

[16] = test system: annual bluegrass; assay: Soil treatment test for upland field; type: in vivo, Poa annua; conditions: 500 g/ha, glass house 25° C., 3 weeks
Method in brief: as §1

[17] = test system: livid amaranth; assay: Foliar spread test for upland field; type: in vivo, Amaranthus lividus; conditions: foliar spray 500 ppm, 3 weeks, rank vs non-treated
Method in brief: as §3

[18] = test system: velvetleaf; assay: Soil treatment test for upland field; type: in vivo, Abutilon theophrasti; conditions: 500 g/ha, glass house 25° C., 3 weeks
Method in brief: as §1

[19] = test system: annual bluegrass; assay: Foliar spread test for upland field; type: in vivo, Poa annua; conditions: foliar spray 500 ppm, 3 weeks, rank vs non-treated
Method in brief: as §3

Structure (SMILES): CCCC(Oc1cccc(C(F)(F)F)c1)c1nc2cc(Cl)ccc2o1 (stereo not drawn) [Compound 142, 1-(5-chlorobenzoxazol-2-yl)-1-(3-(trifluoromethyl)phenoxy)butane]
- Effects Blackgrass [1]: 5
- Effect Young rice plant [2]: 1
- Effects Morning glory [3]: 3
- Effects Green foxtail [4]: 2
- Effects Barnyardgrass [5]: 3
- Effects Blackgrass [6]: 2
- Effect Barnyardgrass [7]: 3
- Effects Common lambsquarters [8]: 4
- Effects Common lambsquarters [9]: 5
- Effects Green foxtail [10]: 5
- Effects Wheat [11]: 3
- Effects Corn [12]: 3
- Effects Sugar beat [13]: 3
- Effects Solgum [14]: 2
- Effects Velvetleaf [15]: 3
- Effects Annual bluegrass [16]: 5
- Effects Livid amaranth [17]: 4
- Effects Velvetleaf [18]: 5
- Effects Annual bluegrass [19]: 3

Structure (SMILES): CCC(Oc1cccc(C(F)(F)F)c1)c1nc2cc(C#N)ccc2o1 (stereo not drawn) [Compound 190]
- Effects Blackgrass [1]: 3
- Effect Young rice plant [2]: 3
- Effects Morning glory [3]: 3
- Effects Green foxtail [4]: 5
- Effects Barnyardgrass [5]: 5
- Effects Blackgrass [6]: 3
- Effect Barnyardgrass [7]: 5
- Effects Common lambsquarters [8]: 4
- Effects Common lambsquarters [9]: 4
- Effects Green foxtail [10]: 5
- Effects Wheat [11]: 2
- Effects Corn [12]: 2
- Effects Sugar beat [13]: 3
- Effects Solgum [14]: 3
- Effects Velvetleaf [15]: 4
- Effects Annual bluegrass [16]: 5
- Effects Livid amaranth [17]: 5
- Effects Velvetleaf [18]: 3
- Effects Annual bluegrass [19]: 4

Structure (SMILES): CCCC(Oc1cccc(C(F)(F)F)c1)c1nc2cc(C#N)ccc2o1 (stereo not drawn) [Compound 192]
- Effects Blackgrass [1]: 5
- Effect Young rice plant [2]: 1
- Effects Morning glory [3]: 2
- Effects Green foxtail [4]: 5
- Effects Barnyardgrass [5]: 3
- Effects Blackgrass [6]: 2
- Effect Barnyardgrass [7]: 5
- Effects Common lambsquarters [8]: 4
- Effects Common lambsquarters [9]: 5
- Effects Green foxtail [10]: 5
- Effects Wheat [11]: 2
- Effects Corn [12]: 2
- Effects Sugar beat [13]: 4
- Effects Solgum [14]: 2
- Effects Velvetleaf [15]: 3
- Effects Annual bluegrass [16]: 5
- Effects Livid amaranth [17]: 4
- Effects Velvetleaf [18]: 5
- Effects Annual bluegrass [19]: 4

Structure (SMILES): CCCC(Oc1ccc(F)c(C(F)(F)F)c1)c1nc2cc(C(F)(F)F)ccc2o1 (stereo not drawn) [Compound 199]
- Effects Blackgrass [1]: 2
- Effect Young rice plant [2]: 1
- Effects Morning glory [3]: 4
- Effects Green foxtail [4]: 2
- Effects Barnyardgrass [5]: 2
- Effects Blackgrass [6]: 2
- Effect Barnyardgrass [7]: 4
- Effects Common lambsquarters [8]: 4
- Effects Common lambsquarters [9]: 5
- Effects Green foxtail [10]: 5
- Effects Wheat [11]: 1
- Effects Corn [12]: 2
- Effects Sugar beat [13]: 3
- Effects Solgum [14]: 1
- Effects Velvetleaf [15]: 4
- Effects Annual bluegrass [16]: 5
- Effects Livid amaranth [17]: 4
- Effects Velvetleaf [18]: 5
- Effects Annual bluegrass [19]: 2

Structure (SMILES): CCCC(Oc1cccc(C(F)(F)F)c1)c1nc2cc(C(F)(F)F)ccc2o1 (stereo not drawn) [Compound 200]
- Effects Blackgrass [1]: 4
- Effect Young rice plant [2]: 0
- Effects Morning glory [3]: 3
- Effects Green foxtail [4]: 5
- Effects Barnyardgrass [5]: 5
- Effects Blackgrass [6]: 2
- Effect Barnyardgrass [7]: 2
- Effects Common lambsquarters [8]: 4
- Effects Common lambsquarters [9]: 4
- Effects Green foxtail [10]: 5
- Effects Wheat [11]: 2
- Effects Corn [12]: 2
- Effects Sugar beat [13]: 4
- Effects Solgum [14]: 2
- Effects Velvetleaf [15]: 2
- Effects Annual bluegrass [16]: 5
- Effects Livid amaranth [17]: 4
- Effects Velvetleaf [18]: 5
- Effects Annual bluegrass [19]: 4

Structure (SMILES): CCC(Oc1ccc(F)c(C(F)(F)F)c1)c1nc2cc(F)c(F)cc2o1 (stereo not drawn) [Compound 284]
- Effects Blackgrass [1]: 5
- Effect Young rice plant [2]: 2
- Effects Morning glory [3]: 3
- Effects Green foxtail [4]: 4
- Effects Barnyardgrass [5]: 5
- Effects Blackgrass [6]: 2
- Effect Barnyardgrass [7]: 4
- Effects Common lambsquarters [8]: 4
- Effects Common lambsquarters [9]: 4
- Effects Green foxtail [10]: 5
- Effects Wheat [11]: 2
- Effects Corn [12]: 3
- Effects Sugar beat [13]: 4
- Effects Solgum [14]: 3
- Effects Velvetleaf [15]: 2
- Effects Annual bluegrass [16]: 5
- Effects Livid amaranth [17]: 5
- Effects Velvetleaf [18]: 5
- Effects Annual bluegrass [19]: 3

Structure (SMILES): CCC(Oc1cccc(C(F)(F)F)c1)c1nc2cc(C#N)c(C#N)cc2o1 (stereo not drawn) [Compound 315]
- Effects Blackgrass [1]: 5
- Effect Young rice plant [2]: 1
- Effects Morning glory [3]: 3
- Effects Green foxtail [4]: 5
- Effects Barnyardgrass [5]: 4
- Effects Blackgrass [6]: 2
- Effect Barnyardgrass [7]: 3
- Effects Common lambsquarters [8]: 5
- Effects Common lambsquarters [9]: 4
- Effects Green foxtail [10]: 5
- Effects Wheat [11]: 2
- Effects Corn [12]: 1
- Effects Sugar beat [13]: 5
- Effects Solgum [14]: 2
- Effects Velvetleaf [15]: 4
- Effects Annual bluegrass [16]: 5
- Effects Livid amaranth [17]: 5
- Effects Velvetleaf [18]: 5
- Effects Annual bluegrass [19]: 2

Structure (SMILES): CCC(Oc1cccc(C(F)(F)F)c1)c1nc2cc(Cl)c(C)cc2o1 (stereo not drawn) [Compound 339, 1-(5-chloro-6-methylbenzoxazol-2-yl)-1-(3-(trifluoromethyl)phenoxy)propane]
- Effects Blackgrass [1]: 3
- Effect Young rice plant [2]: 1
- Effects Morning glory [3]: 2
- Effects Green foxtail [4]: 2
- Effects Barnyardgrass [5]: 3
- Effects Blackgrass [6]: 2
- Effect Barnyardgrass [7]: 4
- Effects Common lambsquarters [8]: 4
- Effects Common lambsquarters [9]: 4
- Effects Green foxtail [10]: 5
- Effects Wheat [11]: 1
- Effects Corn [12]: 2
- Effects Sugar beat [13]: 3
- Effects Solgum [14]: 1
- Effects Velvetleaf [15]: 2
- Effects Annual bluegrass [16]: 5
- Effects Livid amaranth [17]: 4
- Effects Velvetleaf [18]: 4
- Effects Annual bluegrass [19]: 2

Structure (SMILES): CCC(Oc1ccc(F)c(C(F)(F)F)c1)c1nc2cc(Cl)c(C)cc2o1 (stereo not drawn) [Compound 340]
- Effects Blackgrass [1]: 4
- Effect Young rice plant [2]: 0
- Effects Morning glory [3]: 3
- Effects Green foxtail [4]: 4
- Effects Barnyardgrass [5]: 4
- Effects Blackgrass [6]: 2
- Effect Barnyardgrass [7]: 5
- Effects Common lambsquarters [8]: 4
- Effects Common lambsquarters [9]: 5
- Effects Green foxtail [10]: 5
- Effects Wheat [11]: 2
- Effects Corn [12]: 2
- Effects Sugar beat [13]: 3
- Effects Solgum [14]: 2
- Effects Velvetleaf [15]: 4
- Effects Annual bluegrass [16]: 5
- Effects Livid amaranth [17]: 4
- Effects Velvetleaf [18]: 5
- Effects Annual bluegrass [19]: 3
